Test results from patent publication US11584736B2, “Heterocyclic P2Y14 receptor antagonists” (The United States of America, as represented by the …, priority 2018, dated 2023).
Read-outs that look alike come from different tables or passages of the source.

Legend:
[1] = tested on: eosinophils in the bronchoalveolar lavage fluid; experiment: Protease-mediated mouse model of asthma; type: in vivo; details: 10 mg/kg i.p., 30 minutes prior to ovalbumin challenge at day 14, P<0.01 vs vehicle
Experimental: […][…] antagonists were tested in vivo in a protease-mediated mouse model of asthma and found to be effective in reducing the presence of eosinophils in the bronchoalveolar lavage fluid. The animals were first sensitized with ovalbumin/Aspergillus oryzae extract on days 0 and 7. Antagonists were injected i.p. at a dose of 10 mg/kg, 30 minutes prior to an ovalbumin challenge at day 14. […] Both […][…] antagonist effects were statistically significant (P<0.01) compared to vehicle control.

hP2Y14R = target: T1, hP2Y14R (Homo sapiens, UniProt Q15391); experiment: Competitive fluorescent binding assay, flow cytometry of whole hP2Y14R-CHO cells
T1 construct: expressed in transfected cells
T1 sequence (Q15391 1-338): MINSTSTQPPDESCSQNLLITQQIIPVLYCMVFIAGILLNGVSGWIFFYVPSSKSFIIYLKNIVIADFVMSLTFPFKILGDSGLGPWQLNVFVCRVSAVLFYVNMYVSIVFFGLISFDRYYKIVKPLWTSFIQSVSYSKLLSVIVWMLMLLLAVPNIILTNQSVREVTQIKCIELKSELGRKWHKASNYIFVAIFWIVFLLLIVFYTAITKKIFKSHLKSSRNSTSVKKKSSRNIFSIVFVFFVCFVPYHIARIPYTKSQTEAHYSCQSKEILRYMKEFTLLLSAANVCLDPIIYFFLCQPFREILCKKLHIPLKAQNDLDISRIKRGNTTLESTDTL
Experimental: Cell Culture: Chinese hamster ovary cells stably expressing the hP2Y14—R (CHO-hP2Y14R) were grown in Dulbecco's Modified Eagle's Medium (DMEM)/Ham's F12 (F12) 1:1 supplemented with 10% FBS, 100 units/mL penicillin, […] streptomycin, 2 mM L-glutamine and 0.500 mg/mL G418 Sulfate (Geneticin). Cells were maintained in a humidified atmosphere and sterile incubation conditions held at 37° C. and 5% CO2 (g).
Competitive Assay: Competitive fluorescent assays were performed on a BD FACSCalibur flow cytometer in conjunction with the softwares BD Bioscience PlateManager and CellQuest. All cell culture growth and assays for this procedure were conducted on flat-bottom 96-well plates. CHO-hP2Y14R cells were grown to approximately 80-90% confluency prior to assays. The 96-well plate format enabled four compounds to be analyzed in triplicate per run. All unlabeled ligand compounds are stored as 5 mM stock solutions in dimethyl sulfoxide (DMSO). Serial dilutions of each compound were prepared in complete medium. Cells were initially incubated with unlabeled compounds for 30 min at 37° C. and 5% CO2 (g). […] After three consecutive washes in sterile 1× Dulbecco's Phosphate Buffered Saline (DPBS) minus Ca^2+/Mg^2+, cells were detached from the plate using Corning Cellstripper™ to reduce damaging the hP2Y14R protein. Final cell suspensions for flow cytometry was in DPBS minus Ca^2+/Mg^2+.
IC50 values were determined from the gathered data with the program GraphPad Prism version 7.0.

mP2Y14R = target: T2, mP2Y14R (Mus musculus, UniProt Q9ESG6); experiment: Fluorescence binding method at mP2Y14R expressed in HEK293 cells; details: Table 3
T2 construct: expressed in transfected cells; host or cells: HEK293 cells
T2 sequence (Q9ESG6 1-338): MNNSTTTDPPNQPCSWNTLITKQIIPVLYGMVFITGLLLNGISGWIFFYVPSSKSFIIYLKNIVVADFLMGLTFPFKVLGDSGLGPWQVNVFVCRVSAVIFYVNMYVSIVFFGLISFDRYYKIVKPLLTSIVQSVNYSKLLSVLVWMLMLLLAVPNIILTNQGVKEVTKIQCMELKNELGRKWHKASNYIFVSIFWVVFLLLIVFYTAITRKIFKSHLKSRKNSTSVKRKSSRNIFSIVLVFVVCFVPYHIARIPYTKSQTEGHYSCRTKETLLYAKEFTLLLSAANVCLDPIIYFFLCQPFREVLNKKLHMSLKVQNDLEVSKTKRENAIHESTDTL

[2] = Table 2, hP2Y14R-CHO cells, fluorescent antagonist tracer 20 nM, mean ± SEM (n = 3-5), read-out: IC50
[3] = Table 1, hP2Y14R-CHO cells, fluorescent antagonist tracer 20 nM, mean ± SEM (n = 3-5), read-out: IC50
[4] = Table 3 comparison column, values identical to Tables 1 and 2, read-out: hP2Y14R, IC50

Compound | IC50 (hP2Y14R; [2]) [nM] | IC50 (hP2Y14R; [3]) [nM] | further results
NCCCNC(=O)c1ccc(-c2cc(C(=O)O)cc(-n3cc(-c4ccc(C(F)(F)F)cc4)nn3)c2)s1 [Compound 23] |  |  | eosinophils in the bronchoalveolar lavage fluid, normalized and compared to vehicle (100±15%) [1]: 40.3±11.0%
NCCCNC(=O)c1ccc(-c2cc(C(=O)O)cc(-c3cn(-c4ccc(C(F)(F)F)cc4)nn3)c2)s1 [Compound 26, 3-(5-((3-Aminopropyl)carbamoyl)thiophen-2-yl)-5-(1-(4-(trifluoromethyl)phenyl)-1H-1,2,3-triazol-4-yl)benzoic acid] | 2600 ± 560 |  | 
CCCCCCN1CCC(c2ccc(-c3cc(C(=O)O)cc4cc(-c5ccc(C(F)(F)F)cc5)ccc34)cc2)CC1 [Compound 9, 4-(4-(1-Hexylpiperidin-4-yl)phenyl)-7-(4-(trifluoromethyl)phenyl)-2-naphthoic acid] |  | 131 ± 11 | 
NC(=O)c1cc(-c2ccc(C3CCNCC3)cc2)cc(-n2cc(-c3ccc(C(F)(F)F)cc3)nn2)c1 [Compound 15, 4′-(Piperidin-4-yl)-5-(4-(4-(trifluoromethyl)phenyl)-1H-1,2,3-triazol-1-yl)-[1,1′-biphenyl]-3-carboxamide] |  | > 100000 | 
O=C(O)c1cc(-c2ccc(C34CCN(CC3)CC4)cc2)c2ccc(-c3ccc(C(F)(F)F)cc3)cc2c1 [Compound 17, 4-(4-(Quinuclidin-4-yl)phenyl)-7-(4-(trifluoromethyl)phenyl)-2-naphthoic acid] |  | 20 ± 4.4 | 
CN1CCC(c2ccc(-c3cc(C(=O)O)cc4cc(-c5ccc(C(F)(F)F)cc5)ccc34)cc2)CC1 [Compound 5, 4-(4-(1-Methylpiperidin-4-yl)phenyl)-7-(4-(trifluoromethyl)phenyl)-2-naphthoic acid] |  | 195 ± 120 | 
CC(C)(C)OC(=O)N1CCC(c2ccc(-c3cc(C(=O)O)cc4cc(-c5ccc(C(F)(F)F)cc5)ccc34)cc2)CC1 [Compound 10, 4-(4-(1-(tert-butoxycarbonyl)piperidin-4-yl)phenyl)-7-(4-(trifluoromethyl)phenyl)-2-naphthoic acid] |  | 2440 ± 1540 | 
N#Cc1cc(-c2ccc(C3CCNCC3)cc2)cc(-n2cc(-c3ccc(C(F)(F)F)cc3)nn2)c1 [Compound 16, 4′-(Piperidin-4-yl)-5-(4-(4-(trifluoromethyl)phenyl)-1H-1,2,3-triazol-1-yl)-[1,1′-biphenyl]-3-carbonitrile] |  | 42100 ± 8400 | 
O=C(O)c1cc(-c2ccc(C3CCNCC3)cc2)cc(-c2cn(-c3ccc(C(F)(F)F)cc3)nn2)c1 [Compound 25, 4′-(Piperidin-4-yl)-5-(1-(4-(trifluoromethyl)phenyl)-1H-1,2,3-triazol-4-yl)-[1,1′-biphenyl]-3-carboxylic acid] | 644 ± 175 |  | IC50 (hP2Y14R; [4]): 644 ± 175 nM
NC(=O)c1ccc(-c2cc(C(=O)O)cc(-c3cn(-c4ccc(C(F)(F)F)cc4)nn3)c2)cc1 [Compound 24, 4′-Carbamoyl-5-(1-(4-(trifluoromethyl)phenyl)-1H-1,2,3-triazol-4-yl)-[1,1′-biphenyl]-3-carboxylic acid] | 1680 ± 380 |  | 
O=C(O)c1cc(-c2ccc(N3CCNCC3)cc2)cc(-n2cc(-c3ccc(C(F)(F)F)cc3)nn2)c1 [Compound 4, 4′-(Piperazin-1-yl)-5-(4-(4-(trifluoromethyl)phenyl)-1H-1,2,3-triazol-1-yl)-[1,1′-biphenyl]-3-carboxylic acid] |  |  | IC50 (hP2Y14R; [4]): 233 ± 26 nM; IC50 (mP2Y14R): 499 ± 57 nM
O=C(O)c1cc(-c2ccc(C3CCNCC3)cc2)c2ccc(-c3ccc(C(F)(F)F)cc3)cc2c1 [Compound 1] |  |  | eosinophils in the bronchoalveolar lavage fluid, normalized and compared to vehicle (100±15%) [1]: 43.9±12.8%

More lines, main results first:

IC50 (hP2Y14R; [2]) [nM] | IC50 (hP2Y14R; [3]) [nM] | Compound | further results
6040 ± 810 |  | NC(=O)c1ccc(-c2cc(C(=O)O)cc(C(=O)Nc3ccc(C(F)(F)F)cc3)c2)cc1 [Compound 29, 4′-Carbamoyl-5-((4-(trifluoromethyl)phenyl)carbamoyl)-[1,1′-biphenyl]-3-carboxylic acid] | 
 | 963 ± 417 | NCCOCCOCCOCCOCCOCCOCCC(=O)N1CCC(c2ccc(-c3cc(C(=O)O)cc4cc(-c5ccc(C(F)(F)F)cc5)ccc34)cc2)CC1 [Compound 12, 4-(4-(1-(1-Amino-3,6,9,12,15,18-hexaoxahenicosan-21-oyl)piperidin-4-yl)phenyl)-7-(4-(trifluoromethyl)phenyl)-2-naphthoic acid] | 
> 100000 |  | O=C(O)c1cc(-c2ccc(C3CCNCC3)cc2)c2nc(-c3ccc(C(F)(F)F)cc3)[nH]c2c1 [Compound 35, 4-(4-(Piperidin-4-yl)phenyl)-2-(4-(trifluoromethyl)phenyl)-1H-benzo[d]imidazole-6-carboxylic acid] | 
 | 133 ± 111 | CCCN1CCC(c2ccc(-c3cc(C(=O)O)cc4cc(-c5ccc(C(F)(F)F)cc5)ccc34)cc2)CC1 [Compound 7, 4-(4-(1-Propylpiperidin-4-yl)phenyl)-7-(4-(trifluoromethyl)phenyl)-2-naphthoic acid] | 
3050 ± 210 |  | NC(=O)c1ccc(-c2cc(NC(=O)c3ccc(C(F)(F)F)cc3)cc(C(=O)O)c2)cc1 [Compound 27, 4′-Carbamoyl-5-(4-(trifluoromethyl)benzamido)-[1,1′-biphenyl]-3-carboxylic acid] | 
> 100000 |  | O=C(O)c1[nH]c(-c2ccc(C3=CCNCC3)cc2)cc1-n1cc(-c2ccc(C(F)(F)F)cc2)nn1 [Compound 33, 5-(4-(1,2,3,6-Tetrahydropyridin-4-yl)phenyl)-3-(4-(4-(trifluoromethyl)phenyl)-1H-1,2,3-triazol-1-yl)-1H-pyrrole-2-carboxylic acid] | 
 | ~400 | O=C(O)c1cc(-c2ccc(C34CCNCC3C4)cc2)cc(-n2cc(-c3ccc(C(F)(F)F)cc3)nn2)c1 (stereo not shown) [Compound 18, 4′-(3-Azabicyclo[4.1.0]heptan-6-yl)-5-(4-(4-(trifluoromethyl)phenyl)-1H-1,2,3-triazol-1-yl)-[1,1′-biphenyl]-3-carboxylic acid] | 
 | 139 ± 19 | C#CCN1CCC(c2ccc(-c3cc(C(=O)O)cc4cc(-c5ccc(C(F)(F)F)cc5)ccc34)cc2)CC1 [Compound 6, 4-(4-(1-(Prop-2-yn-1-yl)piperidin-4-yl)phenyl)-7-(4-(trifluoromethyl)phenyl)-2-naphthoic acid] | 
